According to patent publication US20200038398A1, “COMBINATION THERAPY WITH GLUTAMINASE INHIBITORS” (Calithera Biosciences, Inc., priority 2017, published 2020):
Like-named read-outs stand apart in the source and are kept apart here.

What was measured:
P493-6 (myc “on”) cells = assay: Cell Proliferation Assay; format: cell-based; details: 72 hrs incubation
Description: P493-6 (myc “on”) cells were maintained in growth media (RPMI-1640, 10% FBS, 2 mM glutamine, 100 units/ml Penicillin and 100 μg/ml streptomycin) at 37° C. with 5% CO2. For compound assay, P493-6 cells were plated in 96-well V-bottom plates on the day of compound addition in 50 μl of growth media at a cell density of 200,000 cells/ml (10,000 cells/well). Compounds were serially diluted in 100% DMSO at 200-times the final concentration. Compounds were diluted 100-fold into growth media and then 50 μl of this mixture was added to cell plates making the final concentration of DMSO 0.5%. Cells were incubated with compound for 72 hrs at 37° C. with 5% CO2 and analyzed for antiproliferative effects either by Cell Titer Glo (Promega) or FACS analysis using the Viacount (Millipore) kit on the Guava instrument.

[1] = system: HCC1569 (breast) cancer cell lines; assay: Combination cell viability (CellTiter-Glo), CB-839 with palbociclib; format: cell-based; details: FIG. 1a; combination with CDK 4/6 inhibitor palbociclib, various concentrations of CB-839, 72 hours
Description: (§1) Cells were treated with a dose titration of either CB-839, an anti-cancer agent, or a mixture thereof for 72 hours (for palbociclib or talazoparib) or 6 days (for niraparib) in growth media. At the end of the incubation, cell viability was measured using CellTiter-Glo as per manufacturer's protocol (Promega, Madison, Wis.). Cell proliferation for all compound treatments is represented with bar graphs, where luminescent output, Relative Light Units (RLU), correlates with viable cell number. Combination indices were calculated using CalcuSyn software (biosoft.com) and reported for individual mixtures of CB-839 and each agent.

[2] = system: estrogen receptor positive (ER+) breast cancer; assay: as above; format: cell-based; details: FIG. 2a; combination with CDK 4/6 inhibitor palbociclib, various concentrations of CB-839, 72 hours
Description: as §1

[3] = system: UWB1.289 ovarian cancer cell lines; assay: Combination cell viability (CellTiter-Glo), CB-839 with niraparib; format: cell-based; details: FIG. 3a; combination with PARP inhibitor niraparib, various concentrations of CB-839, 6 days
Description: as §1

[4] = system: HCC1395 breast cancer cell lines; assay: Combination cell viability (CellTiter-Glo), CB-839 with talazoparib; format: cell-based; details: FIG. 3b; combination with PARP inhibitor talazoparib, various concentrations of CB-839, 72 hours
Description: as §1

[5] = system: H1975 lung cancer cell lines; assay: Combination cell viability (CellTiter-Glo), CB-839 with osimertinib; format: cell-based; details: FIG. 4b, various concentrations of CB-839, 72 hours
Description: as §1, with “agent, osimertinib alone” for “agent,”, “of CB-839 and osimertinib” for “thereof”, “hours” for “hours (for palbociclib or talazoparib) or 6 days (for niraparib)”, “relative” for “viable”, “osimertinib.” for “each agent.”

[6] = system: HCC827 lung cancer cell lines; assay: as above; format: cell-based; details: FIG. 4a, various concentrations of CB-839, 72 hours
Description: as §1, with “agent, osimertinib alone” for “agent,”, “of CB-839 and osimertinib” for “thereof”, “hours” for “hours (for palbociclib or talazoparib) or 6 days (for niraparib)”, “relative” for “viable”, “osimertinib.” for “each agent.”

[7] = system: MCF-7 breast adenocarcinoma cells; assay: MCF-7 xenograft, CB-839 and palbociclib; format: in vivo; details: combination CB-839 200 mg/kg PO BID and palbociclib orally once daily; scid/bg mice; FIG. 2b
Description: Female scid/bg mice were implanted subcutaneously with 17B-estradiol sustained release pellets on Day −1. The following day mice were implanted subcutaneously with 5×10^6 MCF-7 breast adenocarcinoma cells mixed 1:1 with matrigel. On Day 7 post-implant, mice were randomized into groups of n=10/group to receive the following: 1) Vehicle (25% hydroxypropyl-B-cyclodextrin) orally BID; 2) CB-839 at 200 mg/kg orally BID; 3) Palbociclib at 50 mg/kg orally once daily; or 4) CB-839 at 200 mg/kg PO BID and Palbociclib orally once daily. Tumors were measured with calipers three times per week and tumor volume calculated using the formula tumor volume (mm^3)=(a×b^2/2) where ‘b’ is the smallest diameter and ‘a’ is the largest perpendicular diameter. ****P<0.0001 (ANOVA) versus both monotherapies.

[2H]C([2H])(CCc1nnc(NC(=O)Cc2ccccn2)s1)C([2H])([2H])c1ccc(NC(=O)Cc2cccc(OC(F)(F)F)c2)nn1 [Compound 727]
IC50 (P493-6 (myc “on”) cells; read-out: Cell prolif P493 72h IC50): 12 nM

[2H]C([2H])(CCc1nnc(N)s1)C([2H])([2H])c1ccc(NC(=O)Cc2cccc(OC(F)(F)F)c2)nn1 [Compound 726]
IC50 (P493-6 (myc “on”) cells; P493-6, read-out: Cell prolif P493 72h IC50): 610 nM

O=C(Cc1cccc(OC(F)(F)F)c1)Nc1ccc(CCCCc2nnc(NC(=O)Cc3ccccn3)s2)nn1 [CB-839]
synergy between CB-839 and palbociclib [1]: synergy
synergy between CB-839 and palbociclib [2]: synergy
synergy between CB-839 and niraparib [3]: synergy
synergy between CB-839 and talazoparib [4]: synergy
synergy between CB-839 and osimertinib [5]: synergy
synergy between CB-839 and osimertinib [6]: synergy
tumor volume, P (ANOVA) versus both monotherapies [7]: < 0.0001
